Laboratory results from patent US20120020915A1, “Compounds and Methods for Treating Cancer and Diseases of the Central Nervous System” (QUEENS UNIVERSITY AT KINGSTON, priority 2007, published 2012).
Counter-ions that a name gives are not always drawn. Like-named read-outs stand apart in the source and are kept apart here. Blank lines part the entries; values can stand above or below the molecule they belong to.

How the values were obtained:
HO-2 (rat brain) = target: T1, HO-2 (rat brain) (Rattus norvegicus, UniProt P23711); experiment: HO enzymatic activity, rat brain microsomal fraction (CO formation from methemalbumin); assay type: biochemical
T1 construct: brain microsomes were used as a source of HO-2; from tissue; host or cells: brain microsomal fraction of adult male Sprague-Dawley rats
T1 sequence (P23711 1-315): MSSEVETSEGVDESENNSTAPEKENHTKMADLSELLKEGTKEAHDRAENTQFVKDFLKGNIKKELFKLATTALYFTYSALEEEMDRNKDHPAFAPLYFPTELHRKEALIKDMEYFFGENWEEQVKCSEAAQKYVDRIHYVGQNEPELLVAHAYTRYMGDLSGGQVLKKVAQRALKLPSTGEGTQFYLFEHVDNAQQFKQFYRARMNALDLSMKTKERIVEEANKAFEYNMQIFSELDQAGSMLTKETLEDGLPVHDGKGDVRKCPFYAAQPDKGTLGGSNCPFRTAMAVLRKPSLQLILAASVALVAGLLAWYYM
Experimental: (§1) Incubations for HO activity analysis were done under conditions for which the rate of CO formation (pmol CO×min^−1×mg protein^−1) was linear with respect to time and microsomal protein concentration. Briefly, reaction mixtures (150 μL) consisting of 100 mM phosphate buffer (pH 7.4), 50 μM methemalbumin, and 1 mg/mL protein were pre-incubated with the inhibitors at final concentrations ranging from 0.1-100 μM for 10 minutes at 37° C. Reactions were initiated by adding NADPH at a final concentration of 1 mM and incubations were performed for an additional 15 minutes at 37° C.
(§2) Incubations for HO activity analysis were done under conditions for which the rate of CO formation (pmol CO/mg protein/minute) was linear with respect to time and microsomal protein concentration. Briefly, reaction mixtures (150 μL) consisting of 100 mM phosphate buffer (pH 7.4), 50 μM methemalbumin and 1 mg/mL protein were pre-incubated with the vehicle (ethanol or water in which the inhibitors were dissolved), or inhibitors at final concentrations ranging from 0.1-1000 μM for 10 minutes at 37° C. Reactions were initiated by adding β-NADPH at a final concentration of 1 mM and incubations were carried out for an additional 15 minutes at 37° C. Reactions were stopped by instantly freezing the reaction mixture on pulverized dry ice and CO formation was measured by gas chromatography using a TA 3000R Process Gas Analyzer (Trace Analytical/Ametek, Newark, Del., USA).
(§3) The values on the abscissa represent the decimal logarithm of the inhibitor's concentration (in μM), whereas the values of the activity on the ordinate are expressed as a percentage of the control experiments without inhibitor.
(§4) The IC50 values for the replicate experiments were employed to generate the reported standard deviation value.

HO-1 (rat spleen) = target: T2, HO-1 (rat spleen) (Rattus norvegicus, UniProt P06762); experiment: HO enzymatic activity, rat spleen microsomal fraction (CO formation from methemalbumin); assay type: biochemical
T2 construct: Spleen microsomes were used as a source of HO-1; from tissue; host or cells: spleen microsomal fraction of adult male Sprague-Dawley rats
T2 sequence (P06762 1-289): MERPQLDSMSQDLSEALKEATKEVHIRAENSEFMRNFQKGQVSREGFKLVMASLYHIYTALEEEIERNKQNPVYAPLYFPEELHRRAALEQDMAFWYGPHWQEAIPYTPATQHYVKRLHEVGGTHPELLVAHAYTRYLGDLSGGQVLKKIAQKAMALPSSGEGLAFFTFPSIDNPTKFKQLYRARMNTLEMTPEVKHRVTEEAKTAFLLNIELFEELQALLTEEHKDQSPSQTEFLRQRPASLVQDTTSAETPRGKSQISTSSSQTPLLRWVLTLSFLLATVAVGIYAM
Experimental: as §1, §2, §3, §4

[1] = IC50 HO-2 (rat brain)/μM), average ± SD of replicate experiments
[2] = CO formation from methemalbumin, mean ± SD of replicate experiments, read-out: IC50 HO-1 (rat spleen/μM)
[3] = CO formation from methemalbumin, mean ± SD of replicate experiments, read-out: IC50 HO-2 (rat brain)/μM)
[4] = IC50 HO-2 (rat brain)/μM), CO formation from methemalbumin, mean ± SD of replicate experiments
[5] = IC50 HO-1 (rat spleen/μM), average ± SD of replicate experiments
[6] = IC50 HO-1 (rat spleen/μM), CO formation from methemalbumin, mean ± SD of replicate experiments
[7] = average ± SD of replicate experiments, read-out: IC50 HO-1 (rat spleen/μM)
[8] = average ± SD of replicate experiments, read-out: IC50 HO-2 (rat brain)/μM)

Structure (SMILES): O=C(Cn1ccnc1)c1ccc(Cl)c(Cl)c1 [QC-189, 1-(3,4-Dichlorophenyl)-2-imidazol-1-yl-ethanone]
IC50 (HO-2 (rat brain); [1]): 4.7 ± 0.7 µM

IC50 (HO-1 (rat spleen); [2]): > 100 µM
IC50 (HO-2 (rat brain); [3]): > 100 µM
Structure (SMILES): O=C(CCc1ccccc1)Cn1nnc2ccccc21 [QC-131, 1-Benzotriazol-1-yl-4-phenyl-butan-2-one]

IC50 (HO-1 (rat spleen); [2]): > 100 µM
IC50 (HO-2 (rat brain); [3]): > 100 µM
Structure (SMILES): O=C(NCCCn1ccnc1)Nc1ccccc1 [QC-107, 1-(3-Imidazol-1-yl-propyl)-3-phenyl-urea]

Structure (SMILES): O=C(CCc1ccc(Br)cc1)Cn1cncn1 [QC-64, 4-(4-bromophenyl)-1-[1,2,4]triazol-1-yl-butan-2-one hydrochloride]
IC50 (HO-2 (rat brain); [4]): 3 ± 2 µM

Structure (SMILES): O=C(Cn1ccnc1)c1ccccc1 [QC-141, 2-Imidazol-1-yl-1-phenyl-ethanone hydrochloride]
IC50 (HO-1 (rat spleen); [5]): 28 ± 4 µM
IC50 (HO-2 (rat brain); [1]): > 100 µM

Structure (SMILES): O=C(CCc1ccccc1)Cn1cnnn1 [QC-118, 4-Phenyl-1-tetrazol-1-yl-butan-2-one hydrochloride]
IC50 (HO-1 (rat spleen); [6]): 2.6 ± 0.9 µM
IC50 (HO-2 (rat brain); [3]): 20 ± 10 µM

Structure (SMILES): CCC(O)Cn1ccnc1 (centres unmarked) [QC-31, 1-(1H-imidazol-1-yl)butan-2-ol hydrochloride]
IC50 (HO-1 (rat spleen); [6]): 131 ± 38 µM
IC50 (HO-2 (rat brain); [4]): > 100 µM

Structure (SMILES): O=C(CCc1ccc(F)cc1)Cn1ccnc1 [QC-54, 4-(4-Fluorophenyl)-1-(1H-imidazol-1-yl)-2-butanone hydrochloride]
IC50 (HO-2 (rat brain); [4]): 2 ± 0.2 µM

Structure (SMILES): Nc1cccc(SC[C@H]2CO[C@](CCc3ccc(Cl)cc3)(Cn3ccnc3)O2)c1 [QC-20, (2S,4R)-2-[2-(4-chlorophenyl)ethyl]-2-[(1H-imidazol-1-yl)methyl]-4-[{(3-aminophenyl)thio}methyl]-1,3-dioxolane hydrochloride]
IC50 (HO-1 (rat spleen); [6]): 5.2 ± 0.4 µM

Structure (SMILES): O=C(CCn1ccnc1)c1ccccc1 [QC-242, 3-(1H-Imidazol-1-yl)-1-phenyl-propan-1-one hydrochloride]
IC50 (HO-1 (rat spleen); [5]): 79 µM
IC50 (HO-2 (rat brain); [1]): > 100 µM

IC50 (HO-1 (rat spleen); [2]): > 100 µM
Structure (SMILES): O=C(CCc1ccccc1)Cn1nccn1 [QC-101, 4-phenyl-1-[1,2,3]triazol-2-yl-butan-2-one]

IC50 (HO-1 (rat spleen); [2]): 89 ± 1 µM
Structure (SMILES): O=C(CCc1ccccc1)Cn1ccnn1 [QC-91, 4-phenyl-1-(1H-[1,2,3]triazol-1-yl)butan-2-one]

IC50 (HO-1 (rat spleen); [2]): > 100 µM
IC50 (HO-2 (rat brain); [3]): > 100 µM
Structure (SMILES): O=C(NCCCn1ccnc1)c1ccccc1 [QC-109, N-(3-Imidazol-1-yl-propyl)-benzamide]

IC50 (HO-1 (rat spleen); [2]): > 100 µM
IC50 (HO-2 (rat brain); [3]): > 100 µM
Structure (SMILES): NCCc1c[nH]cn1 [QC-67, Histamine dihydrochloride, reference compound]

IC50 (HO-1 (rat spleen); [2]): 1.8 ± 0.5 µM
IC50 (HO-2 (rat brain); [3]): 7.1 ± 0.7 µM
Structure (SMILES): Oc1ccc(OC[C@H]2CO[C@@](CCc3ccc(Cl)cc3)(Cn3ccnc3)O2)cc1 [QC-46, (2R,4S)-4-{2-[2-(4-Chlorophenyl)ethyl]-2-imidazol-1-ylmethyl-[1,3]dioxolan-4-ylmethoxy}phenol hydrochloride]

Structure (SMILES): Brc1ccc(CCCCn2ccnc2)cc1 [QC-199, 1-[4-(4-Bromo-phenyl)-butyl]-1H-imidazole hydrochloride]
IC50 (HO-1 (rat spleen); [5]): 0.25 ± 0.02 µM
IC50 (HO-2 (rat brain); [1]): 6.7 ± 0.3 µM

IC50 (HO-1 (rat spleen); [7]): 21 ± 3 µM
IC50 (HO-2 (rat brain); [8]): > 100 µM
Structure (SMILES): NC[C@@H]1CO[C@@](CCc2ccccc2)(Cn2ccnc2)O1 [QC-190, {2-[2-(phenyl)-ethyl]-2-imidazol-1-ylmethyl-[1,3]dioxolan-4-yl}-methylamine dihydrochloride]

IC50 (HO-1 (rat spleen); [7]): > 100 µM
IC50 (HO-2 (rat brain); [8]): > 100 µM
Structure (SMILES): CS(=O)(=O)c1ncnn1CC(=O)CCc1ccccc1 [QC-156, 1-(5-Methanesulfonyl-[1,2,4]triazol-1-yl)-4-phenyl-butan-2-one]

Structure (SMILES): O=C(Cn1ccnc1)c1ccc(Cl)cc1 [QC-142, 1-(4-Chlorophenyl)-2-imidazol-1-yl-ethanone hydrochloride]
IC50 (HO-1 (rat spleen); [5]): 4 ± 2 µM
IC50 (HO-2 (rat brain); [1]): 20 ± 8 µM

Structure (SMILES): Nc1cccc(SC[C@@H]2CO[C@](CCc3ccc(Cl)cc3)(Cn3ccnc3)O2)c1 [QC-7, (2S,4S)-2-[2-(4-chlorophenyl)ethyl]-2-[(1H-imidazol-1-yl)methyl]-4-[{(3-aminophenyl)thio}methyl]-1,3-dioxolane dihydrochloride]
IC50 (HO-1 (rat spleen); [6]): 1.5 ± 0.1 µM
IC50 (HO-2 (rat brain); [4]): 21 ± 1 µM

IC50 (HO-1 (rat spleen); [2]): > 100 µM
IC50 (HO-2 (rat brain); [3]): > 100 µM
Structure (SMILES): CSc1nccn1CC(=O)CCc1ccccc1 [QC-113, 1-(2-Methylsulfanyl-imidazol-1-yl)-4-phenyl-butan-2-one]

Structure (SMILES): O=C(Cn1ccnc1)c1ccc([N+](=O)[O-])cc1 [QC-159, 2-Imidazol-1-yl-1-(4-nitro-phenyl)-ethanone hydrochloride]
IC50 (HO-1 (rat spleen); [5]): 2.5 ± 0.2 µM
IC50 (HO-2 (rat brain); [1]): > 100 µM

Structure (SMILES): COc1ccc(CCC(O)Cn2ccnc2)cc1 (centres unmarked) [QC-33, 4-(4-methoxyphenyl)-1-(1H-imidazol-1-yl)butan-2-ol hydrochloride]
IC50 (HO-1 (rat spleen); [6]): 0.7 ± 0.1 µM
IC50 (HO-2 (rat brain); [4]): 6 ± 4 µM

Structure (SMILES): O=C(CCn1ccnc1)c1ccccc1O [QC-75, 1-(2-hydroxyphenyl)-3-imidazol-1-yl-propan-1-one]
IC50 (HO-1 (rat spleen); [6]): 25 ± 12 µM
IC50 (HO-2 (rat brain); [4]): > 100 µM

IC50 (HO-1 (rat spleen); [2]): > 100 µM
IC50 (HO-2 (rat brain); [3]): > 100 µM
Structure (SMILES): c1ccc(CCC2(Cn3cccn3)OCCO2)cc1 [QC-95, 2-phenylethyl-2-[(1H-pyrazole-1-yl)methyl]-1,3-dioxolane hydrochloride]

IC50 (HO-2 (rat brain); [3]): > 100 µM
Structure (SMILES): OC(Cn1cncn1)(Cn1cncn1)c1ccc(F)cc1F [QC-90, Fluconazole, reference compound]

Structure (SMILES): O=C(CCc1ccc(Cl)cc1)Cn1ccnc1 [QC-9, 4-(4-chlorophenyl)-1-(1H-imidazol-1-yl)-2-butanone hydrochloride]
IC50 (HO-2 (rat brain); [3]): 43 ± 5 µM

Structure (SMILES): Nc1ccccc1SC[C@@H]1CO[C@](CCc2ccc(Cl)cc2)(Cn2ccnc2)O1 [QC-3, (2S,4S)-2-[2-(4-chlorophenyl)ethyl]-2-[(1H-imidazol-1-yl)methyl]-4-[{(2-aminophenyl)thio}methyl]-1,3-dioxolane dihydrochloride]
IC50 (HO-2 (rat brain); [4]): 55 ± 26 µM

Structure (SMILES): O=C(CCc1ccccc1)Cn1cccn1 [QC-87, 4-phenyl-1-pyrazol-1-yl-butan-2-one hydrochloride]
IC50 (HO-1 (rat spleen); [6]): > 100 µM

IC50 (HO-1 (rat spleen); [2]): 14 ± 3 µM
Structure (SMILES): c1ccc(CCC2(Cn3cncn3)OCCO2)cc1 [QC-104, 2-(2-phenethyl)-2-{(1H-[1,2,4]triazol-1-yl)methyl}-1,3-dioxolane hydrochloride]

Structure (SMILES): O=C(/C=C/c1ccccc1)CCn1ccnc1 [QC-223, 5-(1H-Imidazol-1-yl)-1-phenyl-pent-1-en-3-one hydrochloride]
IC50 (HO-2 (rat brain); [1]): 31 ± 12 µM

Structure (SMILES): Nc1ccccc1SC[C@H]1CO[C@@](CCc2ccc(Cl)cc2)(Cn2ccnc2)O1 [QC-22, (2R,4R)-2-[2-(4-chlorophenyl)ethyl]-2-[(1H-imidazol-1-yl)methyl]-4-[{(2-aminophenyl)thio}methyl]-1,3-dioxolane dihydrochloride]
IC50 (HO-1 (rat spleen); [6]): 87 ± 24 µM

IC50 (HO-2 (rat brain); [3]): 34 ± 3 µM
Structure (SMILES): O=C(CCc1ccccc1)Cn1cncn1 [QC-86, 4-phenyl-1-[1,2,4]triazol-1-yl-butan-2-one hydrochloride]

Structure (SMILES): O=C(CCc1ccc(Br)cc1)Cn1ccnc1 [QC-53, 4-(4-Bromophenyl)-1-(1H-imidazol-1-yl)-2-butanone hydrochloride]
IC50 (HO-2 (rat brain); [4]): 10 ± 5 µM

IC50 (HO-2 (rat brain); [3]): 43 ± 3 µM
Structure (SMILES): Cl.Clc1ccc(CC[C@@]2(Cn3ccnc3)OC[C@@H](COc3ccc(-c4ccccc4)cc3)O2)cc1 [QC-129, (2R,4S)-1-{4-Biphenyl-4-yloxymethyl)-2-[2-(4-chlorophenyl)ethyl]-[1,3]dioxolan-2-ylmethyl}-1H-imidazole hydrochloride]

Structure (SMILES): Fc1ccc(CCC2(Cn3ccnc3)OCCO2)cc1 [QC-55, 1-((2-(2-(4-Fluorophenyl)ethyl)-1,3-dioxolan-2-yl)methyl)-1H-imidazole hydrochloride]
IC50 (HO-1 (rat spleen); [6]): 4 ± 1 µM

Structure (SMILES): CC(C)(C(=O)c1ccccc1)n1ccnc1 [QC-187, 2-Imidazol-1-yl-2-methyl-1-phenyl-propan-1-one]
IC50 (HO-1 (rat spleen); [5]): > 100 µM
